We go through four compounds from article PMC7359870 (Journal of the American Chemical Society, 2020).

One experiment concerns the target purified γ-secretase (Homo sapiens, UniProt P49768). The experiment in a line: Purified enzyme assay: inhibition of γ-secretase. Type of experiment: biochemical.
The target of experiment [1] is T1, γ-secretase (Homo sapiens, UniProt P49768). Nature of the experiment: Enzyme inhibition kinetics. Type of experiment: biochemical.
In experiment [2] the target is presenilin-1 (PS1) N-terminal fragment (NTF) of γ-secretase (Homo sapiens, UniProt P49768). As to conditions: solubilized lysates from γ-secretase-expressing human embryonic kidney 293 cells.
For experiment [3], the target named is T1, γ-secretase. Nature of the experiment: Cross-competition kinetic experiment between two inhibitors. Type of experiment: biochemical. Particulars: for cross-competition with HPI 2 for binding: second inhibitor HPI 2 (docking site); for cross-competition with TSA 17 for binding: second inhibitor TSA 17 (active site).

The structures appear in SMILES notation. “Also recorded” adds a separate entry of the source. Starred links: 1 amine or outer side, 2 acyl side, 3 side chain; linkers in the order of their positions; H or OH if unused. Non-standard residues stand in square brackets, D forms with d. Residues, ends and D or L forms follow the SMILES beside them. *: point of attachment. X1 = CC(C)C[C@H](NC(=O)N(Cc1ccccc1)C[C@@H](O)[C@H](Cc1ccccc1)N*)C(=O)N[C@H](C(N)=O)C(C)C; X2 = CC(C)[C@H](NC(=O)[C@H](C)NC(=O)N(Cc1ccccc1)C[C@@H](O)[C@H](Cc1ccccc1)N*)C(N)=O; NH(CH2)8CO = O=C(CCCCCCCCN[*:1])[*:2]; Boc = CC(C)(C)OC(=O)*; Aib = CC(C)(N)C(=O)O; Ava = NCCCCC(=O)O

As to `CC[C@H](C)[C@H](NC(=O)[C@@H](NC(=O)[C@@H](NC(=O)C(C)(C)NC(=O)CNC(=O)[C@@H](NC(=O)OC(C)(C)C)C(C)C)C(C)C)C(C)C)C(=O)NC(C)(C)C(=O)N[C@@H](Cc1ccccc1)C(=O)N[C@H](C(=O)NC(C)(C)C(=O)NCCCCC(=O)N[C@H](C(=O)N[C@@H](Cc1ccccc1)[C@H](O)CN(Cc1ccccc1)C(=O)N[C@@H](CC(C)C)C(=O)N[C@H](C(N)=O)C(C)C)C(C)C)C(C)C` [Compound 5, Boc-Val-Gly-Aib-Val-Val-Ile-Aib-Phe-Val-Aib-NH(CH2)4CO-Val-Phe-ψ-Phe-Leu-Val-NH2] (Boc-VG[Aib]VVI[Aib]FV[Aib][Ava]V-X1), on purified γ-secretase (relative to IC50 of TSA 1 or HPI 2), the “potency compared to TSA 1 or HPI 2 (fold increase)” value is recorded as 4-to-6 fold.

As for `CC[C@H](C)[C@H](NC(=O)[C@@H](NC(=O)[C@@H](NC(=O)C(C)(C)NC(=O)CNC(=O)[C@@H](NC(=O)OC(C)(C)C)C(C)C)C(C)C)C(C)C)C(=O)NC(C)(C)C(=O)N[C@@H](Cc1ccccc1)C(=O)N[C@H](C(=O)NC(C)(C)C(=O)NCCCCCCCCC(=O)N[C@H](C(=O)N[C@@H](Cc1ccccc1)[C@H](O)CN(Cc1ccccc1)C(=O)N[C@@H](C)C(=O)N[C@H](C(N)=O)C(C)C)C(C)C)C(C)C` [Compound 16] (Boc-VG[Aib]VVI[Aib]FV[Aib][NH(CH2)8CO]V-X2; N-terminus and C-terminus assumed), on γ-secretase [1], the “type of inhibition (enzyme inhibition kinetics)” value was “noncompetitive inhibition”. In experiment [2], the “labelling of PS1 NTF by active-site-directed photoprobe TSA-Bpa-Bt” value is listed as “Decreased photolabelling; also recorded: decreased labelling” and the “labelling of PS1 NTF by docking-site-directed photoprobe HPI-Bpa-Bt” value was “Decreased photolabelling; also recorded: decreased labelling”.

Turning to `CC[C@H](C)[C@H](NC(=O)[C@H](NC(=O)[C@H](NC(=O)C(C)(C)NC(=O)CNC(=O)[C@@H](NC(=O)OC(C)(C)C)C(C)C)C(C)C)C(C)C)C(=O)NC(C)(C)C(=O)N[C@@H](Cc1ccccc1)C(=O)N[C@H](C(=O)NC(C)(C)C(=O)NCCCCCCCCC(=O)N[C@H](C(=O)N[C@@H](Cc1ccccc1)[C@H](O)CN(Cc1ccccc1)C(=O)N[C@@H](CC(C)C)C(=O)N[C@H](C(N)=O)C(C)C)C(C)C)C(C)C` [Compound 9, Boc-Val-Gly-Aib-^DVal-^D Val-Ile-Aib-Phe-Val-Aib-NH(CH2)8CO-Val-Phe-ψ-Phe-Leu-Val-NH2] (Boc-VG[Aib][dV][dV]I[Aib]FV[Aib][NH(CH2)8CO]V-X1), on purified γ-secretase (relative to HPI-TSA 6), the “reduction of inhibitory potency relative to 6” value is listed as “decreased nearly eight-fold”.

As to `CC[C@H](C)[C@H](NC(=O)[C@@H](NC(=O)[C@@H](NC(=O)C(C)(C)NC(=O)CNC(=O)[C@@H](NC(=O)OC(C)(C)C)C(C)C)C(C)C)C(C)C)C(=O)NC(C)(C)C(=O)N[C@@H](Cc1ccccc1)C(=O)N[C@H](C(=O)NC(C)(C)C(=O)NCCCCCCCCC(=O)N[C@H](C(=O)N[C@@H](Cc1ccccc1)[C@H](O)CN(Cc1ccccc1)C(=O)N[C@@H](CC(C)C)C(=O)N[C@H](C(N)=O)C(C)C)C(C)C)C(C)C` [Compound 6, Boc-Val-Gly-Aib-Val-Val-Ile-Aib-Phe-Val-Aib-NH(CH2)8CO-Val-Phe-ψ-Phe-Leu-Val-NH2] (Boc-VG[Aib]VVI[Aib]FV[Aib][NH(CH2)8CO]V-X1), the “type of inhibition (enzyme inhibition kinetics)” value on γ-secretase [1] was “noncompetitive inhibition”. Further, on γ-secretase [3], the “cross-competition with HPI 2 for binding” value is reported as “competed” and the “cross-competition with TSA 17 for binding” value is recorded as “competed”. In addition, on γ-secretase [3] (listed as HPI-TSA 6), the “cross-competition with HPI 2 for binding” value is on record as “competes” and the “cross-competition with TSA 17 for binding” value was “competes”. Moreover, in experiment [2], the “labelling of PS1 NTF by active-site-directed photoprobe TSA-Bpa-Bt” value is given as “Decreased photolabelling; also recorded: decreased labelling” and the “labelling of PS1 NTF by docking-site-directed photoprobe HPI-Bpa-Bt” value is given as “Decreased photolabelling; also recorded: decreased labelling”.
